Patent US12077503B2, “Substituted cyclic amides and their use as herbicides” (FMC CORPORATION, priority 2015, dated 2024)

Tests used:
Assay type in all cases: in vivo
Kochia (Kochia scoparia) [1] = test: Test A postemergence; details: Bassia scoparia, post-emergence, 240 h; for pest or weed control at 125 g/ha: 125 g ai/ha, postemergence, visual injury vs untreated controls after approx. 10 d, 0 = no effect, 100 = complete control, read-out: Kochia plant response rating (0 to 100 scale); for pest or weed control at 500 g/ha: Postemergence, 500 g ai/ha, visual injury, 0 to 100 scale (0 no effect, 100 complete control), approx. 10 d, read-out: Plant response rating, Kochia
Summary of the method: (§1)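 Preemergence soil spray on seeded pots or post-emergence spray on 1–2 leaf plants, in loam–sand blend. Greenhouse ~10 d. Visual rating 0–100 against untreated plants.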

[2] = tested on: ragweed (common ragweed, Ambrosia elatior); test: Test A postemergence; details: Ambrosia artemisiifolia, post-emergence, 240 h; for pest or weed control at 125 g/ha: 125 g ai/ha, postemergence, visual injury vs untreated controls after approx. 10 d, 0 = no effect, 100 = complete control, read-out: Ragweed plant response rating (0 to 100 scale); for pest or weed control at 500 g/ha: Postemergence, 500 g ai/ha, visual injury, 0 to 100 scale (0 no effect, 100 complete control), approx. 10 d, read-out: Plant response rating, Ragweed
Summary of the method: as §1

[3] = tested on: blackgrass (Alopecurus myosuroides); test: Test A postemergence; details: Alopecurus myosuroides, post-emergence, 240 h; for pest or weed control at 125 g/ha: 125 g ai/ha, postemergence, visual injury vs untreated controls after approx. 10 d, 0 = no effect, 100 = complete control, read-out: Blackgrass plant response rating (0 to 100 scale); for pest or weed control at 500 g/ha: Postemergence, 500 g ai/ha, visual injury, 0 to 100 scale (0 no effect, 100 complete control), approx. 10 d, read-out: Plant response rating, Blackgrass
Summary of the method: as §1

corn (Zea mays) = test: Test A postemergence; details: Zea mays, post-emergence, 240 h; for plant injury at 125 g/ha: 125 g ai/ha, postemergence, visual injury vs untreated controls after approx. 10 d, 0 = no effect, 100 = complete control, read-out: Corn plant response rating (0 to 100 scale); for Corn plant response rating (crop injury, 0 = no effect, 100 = complete kill) at 500 g/ha: Postemergence, 500 g ai/ha, visual injury, 0 to 100 scale (0 no effect, 100 complete control), approx. 10 d
Summary of the method: as §1

[4] = tested on: wheat (Triticum aestivum); test: Test A postemergence; details: Triticum aestivum, post-emergence, 240 h; for plant injury at 500 g/ha: Postemergence, 500 g ai/ha, visual injury, 0 to 100 scale (0 no effect, 100 complete control), approx. 10 d, read-out: Plant response rating, Wheat
Summary of the method: as §1

[5] = tested on: pigweed (Amaranthus retroflexus); test: Test A postemergence; details: Amaranthus retroflexus, post-emergence, 240 h; for pest or weed control at 125 g/ha: 125 g ai/ha, postemergence, visual injury vs untreated controls after approx. 10 d, 0 = no effect, 100 = complete control, read-out: Pigweed plant response rating (0 to 100 scale); for pest or weed control at 500 g/ha: Postemergence, 500 g ai/ha, visual injury, 0 to 100 scale (0 no effect, 100 complete control), approx. 10 d, read-out: Plant response rating, Pigweed
Summary of the method: as §1

[6] = tested on: Galium (catchweed bedstraw, Galium aparine); test: Test A postemergence; details: Galium, post-emergence, 240 h; for pest or weed control at 125 g/ha: 125 g ai/ha, postemergence, visual injury vs untreated controls after approx. 10 d, 0 = no effect, 100 = complete control, read-out: Galium plant response rating (0 to 100 scale); for pest or weed control at 500 g/ha: Postemergence, 500 g ai/ha, visual injury, 0 to 100 scale (0 no effect, 100 complete control), approx. 10 d, read-out: Plant response rating, Galium
Summary of the method: as §1

[7] = tested on: ryegrass, Italian (Italian ryegrass, Lolium multiflorum); test: Test A postemergence; details: Lolium multiflorum, post-emergence, 240 h; for pest or weed control at 125 g/ha: 125 g ai/ha, postemergence, visual injury vs untreated controls after approx. 10 d, 0 = no effect, 100 = complete control, read-out: Ryegrass, Italian plant response rating (0 to 100 scale); for pest or weed control at 500 g/ha: Postemergence, 500 g ai/ha, visual injury, 0 to 100 scale (0 no effect, 100 complete control), approx. 10 d, read-out: Plant response rating, Ryegrass, Italian
Summary of the method: as §1

[8] = tested on: giant foxtail (Setaria faberii); test: Test A postemergence; details: Setaria faberi, post-emergence, 240 h; for pest or weed control at 125 g/ha: 125 g ai/ha, postemergence, visual injury vs untreated controls after approx. 10 d, 0 = no effect, 100 = complete control, read-out: Foxtail, Giant plant response rating (0 to 100 scale); for pest or weed control at 500 g/ha: Postemergence, 500 g ai/ha, visual injury, 0 to 100 scale (0 no effect, 100 complete control), approx. 10 d, read-out: Plant response rating, Foxtail, Giant
Summary of the method: as §1

[9] = tested on: barnyardgrass (Echinochloa crus-galli); test: Test A postemergence; details: Echinochloa crus-galli, post-emergence, 240 h; for pest or weed control at 125 g/ha: 125 g ai/ha, postemergence, visual injury vs untreated controls after approx. 10 d, 0 = no effect, 100 = complete control, read-out: Barnyardgrass plant response rating (0 to 100 scale); for pest or weed control at 500 g/ha: Postemergence, 500 g ai/ha, visual injury, 0 to 100 scale (0 no effect, 100 complete control), approx. 10 d, read-out: Plant response rating, Barnyardgrass
Summary of the method: as §1

Kochia (Kochia scoparia) [10] = test: Test A preemergence; details: Bassia scoparia, pre-emergence, 240 h, preemergence, 0 to 100 scale where 0 is no effect and 100 is complete control, read-out: Kochia plant response rating; for pest or weed control at 125 g/ha: 125 g ai/ha, visual injury rating, approximately 10 d; for pest or weed control at 500 g/ha: 500 g ai/ha
Summary of the method: as §1

[11] = tested on: ragweed (common ragweed, Ambrosia elatior); test: Test A preemergence; details: Ambrosia artemisiifolia, pre-emergence, 240 h, preemergence, 0 to 100 scale where 0 is no effect and 100 is complete control, read-out: Ragweed plant response rating; for pest or weed control at 125 g/ha: 125 g ai/ha, visual injury rating, approximately 10 d; for pest or weed control at 500 g/ha: 500 g ai/ha
Summary of the method: as §1

[12] = tested on: pigweed (Amaranthus retroflexus); test: Test A preemergence; details: Amaranthus retroflexus, pre-emergence, 240 h, preemergence, 0 to 100 scale where 0 is no effect and 100 is complete control, read-out: Pigweed plant response rating; for pest or weed control at 125 g/ha: 125 g ai/ha, visual injury rating, approximately 10 d; for pest or weed control at 500 g/ha: 500 g ai/ha
[13] = tested on: ryegrass, Italian (Italian ryegrass, Lolium multiflorum); test: Test A preemergence; details: Lolium multiflorum, pre-emergence, 240 h, preemergence, 0 to 100 scale where 0 is no effect and 100 is complete control, read-out: Ryegrass, Italian plant response rating; for pest or weed control at 125 g/ha: 125 g ai/ha, visual injury rating, approximately 10 d; for pest or weed control at 500 g/ha: 500 g ai/ha
Summary of the method: as §1

[14] = tested on: barnyardgrass (Echinochloa crus-galli); test: Test A preemergence; details: Echinochloa crus-galli, pre-emergence, 240 h, preemergence, 0 to 100 scale where 0 is no effect and 100 is complete control, read-out: Barnyardgrass plant response rating; for pest or weed control at 125 g/ha: 125 g ai/ha, visual injury rating, approximately 10 d; for pest or weed control at 500 g/ha: 500 g ai/ha
Summary of the method: as §1

| SMILES | pest or weed control at 125 g/ha (Kochia (Kochia scoparia) [1]) [%] | pest or weed control at 500 g/ha (Kochia (Kochia scoparia) [1]) [%] | pest or weed control at 125 g/ha [2] [%] | pest or weed control at 500 g/ha [2] [%] | pest or weed control at 125 g/ha [3] [%] | pest or weed control at 500 g/ha [3] [%] | plant injury at 125 g/ha (corn (Zea mays)) [%] | Corn plant response rating (crop injury, 0 = no effect, 100 = complete kill) at 500 g/ha (corn (Zea mays)) [%] | plant injury at 500 g/ha [4] [%] | pest or weed control at 125 g/ha [5] [%] | pest or weed control at 500 g/ha [5] [%] | pest or weed control at 125 g/ha [6] [%] | pest or weed control at 500 g/ha [6] [%] | pest or weed control at 125 g/ha [7] [%] | pest or weed control at 500 g/ha [7] [%] | pest or weed control at 125 g/ha [8] [%] | pest or weed control at 500 g/ha [8] [%] | pest or weed control at 125 g/ha [9] [%] | pest or weed control at 500 g/ha [9] [%] | pest or weed control at 125 g/ha (Kochia (Kochia scoparia) [10]) [%] | also measured |
| --- | --- | --- | --- | --- | --- | --- | --- | --- | --- | --- | --- | --- | --- | --- | --- | --- | --- | --- | --- | --- | --- |
| Cc1c(F)cccc1NC(=O)[C@H]1C(=O)N(C)C[C@@H]1c1ccc2c(c1)OC(F)(F)O2 [Compound 1252] | 20 | 60 | 0 | 50 | 50 | 50 | 80 | 90 | 70 | 0 | 50 | 50 | 60 | 70 | 70 | 80 | 80 | 80 | 90 | 80 | plant injury at 125 g/ha ([4]; 125 g ai/ha, postemergence, visual injury vs untreated controls after approx. 10 d, 0 = no effect, 100 = complete control, read-out: Wheat plant response rating (0 to 100 scale)): 70%; pest or weed control at 500 g/ha (Kochia (Kochia scoparia) [10]): 80%; pest or weed control at 125 g/ha [11]: 60%; pest or weed control at 500 g/ha [11]: 70%; pest or weed control at 125 g/ha [12]: 70%; pest or weed control at 500 g/ha [12]: 90%; pest or weed control at 125 g/ha [13]: 80%; pest or weed control at 500 g/ha [13]: 90%; pest or weed control at 125 g/ha [14]: 100%; pest or weed control at 500 g/ha [14]: 100% |
| CN1C[C@H](c2ccc(F)c(C#N)c2)[C@@H](C(=O)Nc2ccccc2F)C1=O [Compound 1254] | 0 | 40 | 0 | 0 | 0 | 40 | 20 | 50 | 40 | 0 | 20 | 30 | 50 | 0 | 70 | 80 | 80 | 80 | 90 | 20 | pest or weed control at 500 g/ha (Kochia (Kochia scoparia) [10]): 70%; pest or weed control at 125 g/ha [11]: 0%; pest or weed control at 500 g/ha [11]: 30%; pest or weed control at 125 g/ha [12]: 20%; pest or weed control at 500 g/ha [12]: 70%; pest or weed control at 125 g/ha [13]: 0%; pest or weed control at 500 g/ha [13]: 40%; pest or weed control at 125 g/ha [14]: 100%; pest or weed control at 500 g/ha [14]: 100% |
| CSc1ccccc1NC(=O)[C@H]1C(=O)NC[C@@H]1c1ccc2c(c1)OCO2 [Compound 1257] | 0 | 0 | 0 | 0 | 0 | 0 | 0 | 0 | 0 | 0 | 0 | 0 | 0 | 0 | 0 | 0 | 0 | 0 | 0 | 0 | pest or weed control at 500 g/ha (Kochia (Kochia scoparia) [10]): 0%; pest or weed control at 125 g/ha [11]: 0%; pest or weed control at 500 g/ha [11]: 0%; pest or weed control at 125 g/ha [12]: 0%; pest or weed control at 500 g/ha [12]: 0%; pest or weed control at 125 g/ha [13]: 0%; pest or weed control at 500 g/ha [13]: 0%; pest or weed control at 125 g/ha [14]: 0%; pest or weed control at 500 g/ha [14]: 0% |
